Experimental data published in ChEMBL document CHEMBL1201862, “PubChem BioAssay data set” (2004).
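Results reflect a 48-hour exposure of cells in 96-well plates to compound at five concentrations. GI50 marks 50% less growth.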 The source made the active and inactive calls. Rule as the data show it: active = GI50 up to about 1.1 µM and inactive = higher.

Legend:
Assay in all cases: growth of human tumour cells (NCI), 48 h
[1] = tested on: SK-OV-3
[2] = tested on: UACC-257
[3] = tested on: SNB-19
[4] = tested on: RXF 393
[5] = tested on: NCI-H23
[6] = tested on: COLO 205
[7] = tested on: MDA-N
[8] = tested on: LOX IMVI
[9] = tested on: HCT-116
[10] = tested on: DU-145
[11] = tested on: ACHN
[12] = tested on: M14
[13] = tested on: NCI-H226
[14] = tested on: HT-29
[15] = tested on: SK-MEL-5
[16] = tested on: A498
[17] = tested on: NCI-H460
[18] = tested on: TK-10
[19] = tested on: NCI/ADR-RES

Measured: GI50

CC(=O)NCCCCN(CCCNC(C)=O)C(=O)CNS(=O)(=O)c1cccc2c(N(C)C)cccc12
inactive: [1] > 100 µM | [2] > 100 µM | [3] > 100 µM | [4] > 100 µM | [5] > 100 µM | [6] > 100 µM | [7] > 100 µM | [8] > 100 µM | [9] > 100 µM | [10] > 100 µM | [11] > 100 µM | [12] > 100 µM | [13] > 100 µM | [14] > 100 µM | [15] > 100 µM | [16] > 100 µM | [17] > 100 µM | [18] > 100 µM

O=[N+]([O-])c1ccc(CN(CCCl)OCCCl)cc1
inactive: [1] > 100 µM | [2] 70.1 µM | [3] > 100 µM | [4] > 100 µM | [5] 76.7 µM | [6] > 100 µM | [7] > 100 µM | [8] 55.7 µM | [9] 80.7 µM | [10] > 100 µM | [11] 64.3 µM | [12] > 100 µM | [13] > 100 µM | [14] > 100 µM | [15] 51.3 µM | [19] > 100 µM | [17] > 100 µM | [18] > 100 µM

Cc1ccc(C)n2c1nc1ccc3ccccc3c12
inactive: [1] > 100 µM | [2] > 100 µM | [3] > 100 µM | [4] > 100 µM | [5] > 100 µM | [6] > 100 µM | [7] > 100 µM | [10] > 100 µM | [11] > 100 µM | [12] > 100 µM | [13] > 100 µM | [14] > 100 µM | [15] 50.2 µM | [19] > 100 µM | [17] > 100 µM | [18] > 100 µM

CCOC(=O)c1ccc(/N=C2/C(=S)N(c3ccc(C(=O)OCC)cc3)C(=N)N2/N=C/c2ccccc2)cc1
inactive: [1] 24.1 µM | [2] > 10 µM | [3] 14.3 µM | [4] 5.13 µM | [5] > 10 µM | [6] 5.06 µM | [7] 12.1 µM | [9] 6.11 µM | [10] 37.3 µM | [12] 11.8 µM | [13] 15 µM | [14] 18.4 µM | [15] 3.37 µM | [19] 38.3 µM | [17] 15.5 µM | [18] 23.2 µM

O=C1CN(c2ccc(Cl)cc2)C(=O)CN1CCN1CC(=O)N(c2ccc(Cl)cc2)CC1=O
inactive: [1] > 100 µM | [2] > 100 µM | [3] > 100 µM | [4] > 100 µM | [5] > 100 µM | [6] > 100 µM | [7] > 100 µM | [9] > 100 µM | [10] > 100 µM | [11] > 100 µM | [12] > 100 µM | [14] > 100 µM | [15] > 100 µM | [16] > 100 µM | [17] > 100 µM | [18] > 100 µM

CCN(CC)CCn1nc(N)c2nc3ccccc3nc21
inactive: [1] > 100 µM | [2] > 100 µM | [3] > 100 µM | [4] > 100 µM | [5] > 100 µM | [7] > 100 µM | [8] > 100 µM | [9] 53.8 µM | [11] > 100 µM | [12] > 100 µM | [13] > 100 µM | [14] > 100 µM | [19] > 100 µM | [16] > 100 µM | [17] > 100 µM | [18] > 100 µM

COc1ccc(C(SC2C(O)C(CO)OC2n2ccc(N)nc2=O)(c2ccccc2)c2ccc(OC)cc2)cc1 (stereo not given)
inactive: [1] 12.2 µM | [2] 18.6 µM | [3] 16 µM | [4] 17.5 µM | [5] 22.2 µM | [6] 14.6 µM | [7] 10.1 µM | [8] 17.7 µM | [9] 14.9 µM | [10] 18.5 µM | [11] 31.3 µM | [12] 12.7 µM | [13] 14.2 µM | [14] 16.9 µM | [15] 12.9 µM | [19] 21 µM | [17] 12.1 µM | [18] 26.8 µM

O=[N+]([O-])c1ccc(SN=S=NSc2cccc(SN=S=NSc3ccc([N+](=O)[O-])cc3)c2)cc1
inactive: [1] > 100 µM | [2] 45.3 µM | [3] 38.5 µM | [6] 46.5 µM | [7] 30.8 µM | [8] 17.2 µM | [9] 29.7 µM | [11] 42.3 µM | [12] 37 µM | [14] 33.2 µM | [15] 28.4 µM | [19] 28 µM | [16] 94.8 µM | [17] 31 µM

O=[N+]([O-])c1ccc(C2c3c(O)nc(O)nc3Oc3nc(O)nc(O)c32)cc1
inactive: [1] > 100 µM | [2] > 100 µM | [3] > 100 µM | [4] 8.36 µM | [5] > 100 µM | [6] > 100 µM | [7] > 100 µM | [9] > 100 µM | [10] > 100 µM | [11] > 100 µM | [12] > 100 µM | [13] > 100 µM | [14] > 100 µM | [15] > 100 µM | [16] > 100 µM | [17] > 100 µM | [18] > 100 µM

Cc1cc(Br)cc(C)c1NC(=O)C(=O)Nn1c(S)nc2ccccc2c1=O
inactive: [1] > 100 µM | [2] > 100 µM | [3] 78.9 µM | [4] > 100 µM | [5] > 100 µM | [7] > 100 µM | [8] > 100 µM | [9] > 100 µM | [11] > 100 µM | [12] > 100 µM | [13] > 100 µM | [14] > 100 µM | [15] > 100 µM | [19] > 100 µM | [16] > 100 µM | [17] > 100 µM | [18] > 100 µM

CC(C)(C)OC(=O)[C@@H]1ON2O[C@H](OC3CCCC3(c3ccccc3)c3ccccc3)C[C@H]3OC(=O)[C@@H]1[C@H]32 (stereo not given in full)
inactive: [1] > 100 µM | [2] 71.3 µM | [3] > 100 µM | [4] 25.7 µM | [5] 46.5 µM | [6] 37.3 µM | [7] 61.7 µM | [8] 31.4 µM | [9] 32 µM | [10] 81.8 µM | [11] > 100 µM | [12] 40.6 µM | [13] 36.9 µM | [14] 38.8 µM | [15] 41.6 µM | [19] 33.9 µM | [17] 54.3 µM | [18] > 100 µM

c1cn[nH]c1 [PYRAZOLE]
inactive: [1] > 10 µM | [3] > 10 µM | [4] > 10 µM | [5] > 10 µM | [6] > 10 µM | [7] > 10 µM | [8] > 10 µM | [9] > 10 µM | [11] > 10 µM | [13] > 10 µM | [14] > 10 µM | [15] > 10 µM | [19] > 10 µM | [16] > 10 µM | [17] > 10 µM | [18] > 10 µM
